We go through two compounds from ChEMBL document CHEMBL3045341, “Triterpene saponins of Quillaja saponaria show strong aphicidal and deterrent activity against the pea aphid Acyrthosiphon pisum” (2012).

≈ marks a conversion by molar mass, not a printed value.

Holding throughout (type): functional
Holding throughout (conditions): 72 h

Assay [1] has as its system Acyrthosiphon pisum. The assay can be described thus: Insecticidal activity against Acyrthosiphon pisum (pea aphid) assessed as mortality at 5 mg/ml after 3 days by no-choice assay.
Assay [2] concerns Acyrthosiphon pisum. The experiment in a line: Insecticidal activity against Acyrthosiphon pisum (pea aphid) assessed as mortality at 1 mg/ml after 3 days by no-choice assay.
The subject of assay [3] is Acyrthosiphon pisum. The experiment in a line: Insecticidal activity against Acyrthosiphon pisum (pea aphid) after 3 days by no-choice assay.

Regarding `C[C@@H]1CC[C@@]2(OC1)O[C@H]1[C@@H](O)[C@H]3[C@@H]4CC[C@H]5C[C@@H](O[C@@H]6O[C@H](CO)[C@H](O[C@@H]7O[C@H](CO)C(O)[C@H](O[C@@H]8OC[C@@H](O)[C@H](O)[C@H]8O)[C@H]7O[C@@H]7O[C@H](CO)[C@H](O)[C@H](O[C@@H]8O[C@H](CO)[C@@H](O)[C@H](O)[C@H]8O)[C@H]7O)[C@H](O)[C@H]6O)[C@H](O)C[C@]5(C)[C@H]4CC[C@]3(C)[C@H]1[C@@H]2C` (some centres undefined) [DIGITONIN], in assay [1], the mortality (commonly the percentage killed) at 5000 µg/mL was 14%. Besides, the mortality at 1000 µg/mL in assay [2] stood at 76%. The LC50 (usually the concentration that kills 50% of the test population) in assay [3] is 0.45 µg/mL (≈ 0.366 µM).

As to `C[C@@H]1CC[C@@]2(OC1)O[C@H]1C[C@H]3[C@@H]4CC=C5C[C@@H](O)CC[C@]5(C)[C@H]4CC[C@]3(C)[C@H]1[C@@H]2C` [DISOGENIN], the mortality at 5000 µg/mL in assay [1] was 18%.
